Like-named read-outs stand apart in the source and are kept apart here.
Test system: Microbial strains (5) isolated from paper mill water samples
Experiment: VFA reduction in TGE broth cultures of paper mill microbial isolates, VFA measured by GC-FID
Type: cell-based
Description: Equipment: A Gas Chromatograph (GC) equipped with a flame ionization detector (FID) (e.g. Agilent 6890N GC or equivalent) equipped with an autosampler is utilized with a Fused Silica Capillary Column (e.g. Agilent DB-WAX UI, 30 m×0.53 mm×1.0 μm).
Sample Preparation: An aliquot (0.5 mL) of a sample is taken from a shaken sample well via pipet and transferred into a glass vial with the standard diluent (4.5 mL). The glass vial is then capped and vortexed, and a portion of the contents transferred into a GC vial.
GC Standardization: The GC is standardized by injecting 2.0 μL of each working standard using the instrument parameters listed in Table 2 below. The areas for the standards are used to create a linear calibration curve in GC software (e.g. Agilent Chemstation or equivalent).
Quantitative Sample Analysis: Samples (2 μL injection volume) are analyzed against the working standards, with appropriate dilutions made to keep sample concentrations within the range of the standards. Peak areas of the samples are compared to the standard curves to determine the amounts of each VFA present in each sample via GC software (e.g. Agilent Chemstation or equivalent).
Calibration: A working standard (10 or 50 ppm, 2 μL) is injected at the beginning and end of each set of samples, and intermittently within long sequences of sampling, and the concentration determined and compared to the to the standard curve to maintain calibration (+/−5% of standard curve).
General Procedure: Microbial strains (5) are isolated from paper mill water samples onto individual petri plates. Overnight cultures are prepared by inoculating TGE Broth (10 mL) with a single colony from each petri plate (5 isolated strains=5 colonies per 10 mL overnight culture). Each culture is then incubated overnight at 35° C. with shaking. Portions (0.6 mL ea.) of each overnight culture are added to bottles with sterile TGE broth (29.4 mL) and the resulting mixtures are incubated with shaking at 35° C. After 2 hours (T=0), an initial sample from each bottles is taken and analyzed GC as described above. The samples are then dosed with a VFA Control Agent, capped, and incubated with shaking at 35° C. Aliquots of each sample are taken at various times post-dosage and analyzed via GC as described above, with each sample bottle capped and incubated between samplings along with an uninoculated control (sterile TGE broth) and an inoculated control (untreated). % VFA reduction is reported based on the relative VFA concentration (ppm) of a sample determined against the inoculated/untreated control.

[1] = single VFA Control Agent, ppm as per Example (25-500 ppm), 4 h post-dosage, 35° C., vs inoculated/untreated control
[2] = single VFA Control Agent at 50 or 100 ppm as per Example, 0.5 h post-dosage
[3] = single VFA Control Agent at 50 or 100 ppm as per Example, 2 h post-dosage
[4] = single VFA Control Agent at 50 or 100 ppm as per Example, 2.5 h post-dosage

## O=P1([O-])OP(=O)([O-])OP(=O)([O-])OP(=O)([O-])OP(=O)([O-])OP(=O)([O-])O1.[Na+].[Na+].[Na+].[Na+].[Na+].[Na+] [Example 3, Sodium hexametaphosphate]
[1]
  VFA Red. at 4 h (%): 0%

## O=P1([O-])OP(=O)([O-])OP(=O)([O-])OP(=O)([O-])OP(=O)([O-])OP(=O)([O-])O1.[Na+].[Na+].[Na+].[Na+].[Na+].[Na+] [Example 4, Sodium hexametaphosphate]
[1]
  VFA Red. at 4 h (%): 4%

## O=P(O)(O)CN(CCCCCCN(CP(=O)(O)O)CP(=O)(O)O)CCCCCCN(CP(=O)(O)O)CP(=O)(O)O [Example 5]
[1]
  VFA Red. at 4 h (%): 4%

## O=P(O)(O)CN(CCCCCCN(CP(=O)(O)O)CP(=O)(O)O)CCCCCCN(CP(=O)(O)O)CP(=O)(O)O [Example 6]
[1]
  VFA Red. at 4 h (%): 12%

## O=P(O)(O)CN(CCN(CP(=O)(O)O)CP(=O)(O)O)CCN(CP(=O)(O)O)CP(=O)(O)O [Example 7, Diethylenetriamine penta(methylene phosphonic acid)]
  VFA Red. at 4 h (%): 19%

## O=P(O)(O)CN(CCN(CP(=O)(O)O)CP(=O)(O)O)CCN(CP(=O)(O)O)CP(=O)(O)O [Example 8, Diethylenetriamine penta(methylene phosphonic acid)]
  VFA Red. at 4 h (%): 25%

## O=P(O)(O)CN(CCN(CP(=O)(O)O)CP(=O)(O)O)CCN(CP(=O)(O)O)CP(=O)(O)O [Example 24, Diethylenetriamine penta(methylene phosphonic acid)]
  VFA Red. at 0.5 h (%): 2.1%
  VFA Red. at 2 h (%): 6.4%
  VFA Red. at 2.5 h (%): 8.2%

## O=P(O)(O)CN(CCN(CP(=O)(O)O)CP(=O)(O)O)CCN(CP(=O)(O)O)CP(=O)(O)O [Example 25, Diethylenetriamine penta(methylene phosphonic acid)]
  VFA Red. at 0.5 h (%): 8.3%
  VFA Red. at 2 h (%): 12.5%
  VFA Red. at 2.5 h (%): 9.1%

## O=S([O-])O.[Na+] [Example 28, Sodium bisulfite]
[2]
  VFA Red. at 0.5 h (%): 3.1%
[3]
  VFA Red. at 2 h (%): 0.0%
[4]
  VFA Red. at 2.5 h (%): 6.9%

## O=S([O-])O.[Na+] [Example 29, Sodium bisulfite]
[2]
  VFA Red. at 0.5 h (%): 1.0%
[3]
  VFA Red. at 2 h (%): 14.6%
[4]
  VFA Red. at 2.5 h (%): 25.5%

## Diethylenetriamine penta(methylene phosphonic acid) sodium salt [Example 26]
Sodium salt
  VFA Red. at 0.5 h (%): 3.1%
  VFA Red. at 2 h (%): 6.4%
  VFA Red. at 2.5 h (%): 9.1%

## Diethylenetriamine penta(methylene phosphonic acid) sodium salt [Example 27]
Sodium salt
  VFA Red. at 0.5 h (%): 4.2%
  VFA Red. at 2 h (%): 7.9%
  VFA Red. at 2.5 h (%): 6.9%

## Polyamino polyether methylene phosphonic acid [Example 9]
[1]
  VFA Red. at 4 h (%): 5%

## Polyamino polyether methylene phosphonic acid [Example 10]
[1]
  VFA Red. at 4 h (%): 10%

— US20230193562A1, “METHOD FOR CONTROLLING VOLATILE FATTY ACID CONTENT IN PULP, PAPER, AND/OR BOARD MAKING PROCESSES” (SOLENIS TECHNOLOGIES, L.P., priority 2021, published 2023)
